Test results published in patent US20070015733A1, “Aryl Phosphate Derivatives of d4T having Activity Against Resistant HIV Strains” (Parker Hughes Institute, priority 1998, published 2007).
Where two headings read alike, the source gives them in different places.

Columns and labels:
[1] = Pharmacokinetics after intravenous or oral administration; assay type: in vivo, mice
[2] = tested on: zidovudine-resistant primary clinical HIV-1 isolates; experiment: p24 drug susceptibility assay, NRTI-/zidovudine-resistant primary clinical HIV-1 isolates in PBMC; assay type: cell-based; conditions: Human immunodeficiency virus 1, PBMC
Experimental: Viruses. […] The HIV-1 strains HTLVIIIB (wildtype RT, NRTI-sensitive, NNRTI-sensitive), A17 (Y181 C mutant, NNRTI-resistant), A17-variant (Y181C+K103N mutant, NNRTI-resistant), and RT-MDR (M41 L, V106N, T215Y; NRTI-resistant, NNRTI-resistant) were also obtained from the AIDS Research and Reference Reagent Program, NIAID.
Antiviral susceptibility assays. Phenotypic drug susceptibility studies of HIV-1 isolates and strains were performed by measuring the production of the p24 gag protein in peripheral blood mononuclear cells (PBMC) from seronegative healthy volunteers in the presence of increasing concentrations of the anti-HIV agent using the quantitative Coulter HIV-1 p24 antigen ezyme immunoassay (EIA) and HIV-1 p24 Antigen Kinetic Standard (Beckman Coulter), as previously described (Uckun, 1998, Antimicrobial Agents and Chemotherapy 37(4): 835-38). Informed consent was obtained from the blood donors according to DHHS guidelines using consent forms approved by the Institutional Review Board. In brief, PBMC were cultured for 72 h in RPMI 1640 medium (Gibco) supplemented with 20% (vol/vol) heat-inactivated fetal bovine serum, 5% human interleukin-2 (Zeptometrix), 2 mM L-glutamine, 25 mM HEPES, 2 g/L NaHCO3, 100 U/ml penicillin/streptomycin (Gibco), 50 μg/ml gentamicin (Gibco), and 5 μg/ml phytohemagglutinin-P (PHA-P) (Sigma) for 24-72 hours prior to exposure to HIV at a multiplicity of infection of 0.001-0.1 during a 1-h adsorbtion period at 37±1° C. in a humidified 5-7% CO2 atmosphere. Subsequently, cells were cultured in 96-well microtiter plates (100 μl/well; 2×10^6 cells/ml, triplicate wells) in the presence of the anti-HIV agents at 6-7 different concentrations ranging from 0.0001 μM to 100 μM, and 25 μL aliquots of culture supernatants were removed from the wells on day 6 after infection for p24 EIA, as previously described (Uckun, 1998, Antimicrobial Agents and Chemotherapy, 37(4):835-38). Controls included uninfected and untreated cells (background control) and infected but untreated (virus control) cells. The p24 EIA utilizes a murine monoclonal antibody to HIV core protein used to coat microwell strips to which the antigen present in the test culture supernatant samples binds. Percent inhibition of viral replication was calculated by comparing the p24 values from the test substance-treated infected cells with p24 values from untreated infected cells (i.e., virus controls). The IC50 values were determined using the Statview statistics program (SAS Institute, Inc.). In parallel, the effects of various treatments on cell viability were also examined as previously described (Uckun, 1998, Antimicrobial Agents and Chemotherapy, 42:383-388). In brief, noninfected PBMC were treated with each compound for 5 days under identical experimental conditions. A microculture tetrazolium assay (MTA) was performed to quantitate cellular proliferation (Uckun, 1998, Antimicrobial Agents and Chemotherapy, 42:383-388).
Phenotypic drug susceptibility studies of HIV-1 isolates and strains were performed by measuring the production of the p24 gag protein in peripheral blood mononuclear cells (PBMC) from seronegative healthy volunteers in the presence of increasing concentrations of the anti-HIV agent using the quantitative Coulter HIV-1 p24 antigen enzyme immunoassay (EIA) and HIV-1 p24 Antigen Kinetic Standard (Beckman Coulter), as previously described. StatView was used in the calculation of the IC50 values from each set of triplicate wells using the linearized form of an exponential equation (lnY=lnb0+b1X; where Y=% inhibition, X=drug concentration). The inhibition constants were log10 transformed to homogenize the variances within each group. […] P-values below 0.05 were deemed significant (JMP Software, SAS).

[3] = tested on: zidovudine-resistant primary clinical HIV-1 isolates in CD4-expressing HeLa cell line HT4-6C; experiment: Syncytial focus (plaque) formation assay in HT4-6C cells; assay type: cell-based; conditions: Human immunodeficiency virus 1, HeLa
Experimental: Plaque formation assays. The syncytial focus (plaque) assay permits quantitation of infectivity of HIV. In brief, a CD4-expressing HeLa cell line (HT4-6C) (AIDS Research and Reference Reagent Program, NIAID) is cultured in 24-well tissue culture plates at 2.5-3.0×10^4 cells/ml in the presence of virus inoculum (100 plaque forming units) and several concentrations of the antiviral agent. The virus was added first for a 2 hr incubation time prior to addition of the antiviral agents. […] Percent inhibition of plaque formation was calculated by comparing the plaque numbers from the test substance-treated infected cells with the plaque numbers from untreated infected cells (i.e., virus controls).

COC(=O)C(C)NP(=O)(OC[C@@H]1C=C[C@H](n2cc(C)c(=O)[nH]c2=O)O1)Oc1ccc(Br)cc1 (some centres unmarked) [Compound 1c, d4T-5′-[p-bromo-phenylmethoxyalaninyl phosphate]]
parent compound in blood ([1]; after oral administration): No parent d4T-5′-[p-bromophenyl methoxyalaninyl phosphate] was detectable | elimination half-life (t1/2) of the administered substance ([1]; intravenous administration): 3.5 min | IC50 ([2]; isolate 92BR019 (D67N, L214F, T215D, K219Q), PBMC): 2 nM | IC50 ([2]; isolate BR/92/019, PBMC, p24): 2 nM | IC50 ([2]; isolate C140 (M41L, M184V, T215Y), PBMC): 2.5 nM | IC50 ([2]; isolate C140, PBMC, p24): 2.5 nM | IC50 ([2]; isolate C467-4 (K20R, D67N, K70R, Y188L, T215F, K219Q), PBMC): 42 nM | IC50 ([2]; isolate C467-4, PBMC, p24): 42 nM | IC50 ([2]; isolate G190-6, PBMC, p24): 2.8 nM | IC50 ([2]; isolate G691-2 (mutations N.D.), PBMC): 5 nM | IC50 ([2]; isolate G704-2 (M41L, D67N, K70R, L210W, T215Y), PBMC): 3.2 nM | IC50 ([2]; isolate G704-2, PBMC, p24): 3.2 nM | IC50 ([2]; isolate G780-1 (M41L, D67N, K70R, T215F, K219Q), PBMC): 35 nM | IC50 ([2]; isolate G780-1, PBMC, p24): 35 nM | IC50 ([2]; isolate G890-1 (K20R, M41L, D67N, T69N, K70R, L210W, T215Y), PBMC): 6 nM | IC50 ([2]; isolate G890-1, PBMC, p24): 6 nM | IC50 ([2]; isolate G910-6 (M41L, D67N, K70R, T215Y, K219Q), PBMC): 2.8 nM | IC50 ([2]; isolate P798-1 (M41L, T215Y), PBMC): 7.5 nM | IC50 ([2]; isolate P798-1, PBMC, p24): 7.5 nM | IC50 ([2]; isolate Q252-2 (M41L, L210W, T215Y), PBMC): 1.9 nM | IC50 ([2]; isolate Q252-2, PBMC, p24): 1.9 nM | IC50 ([2]; isolate R416-10 (M41L, T215Y), PBMC): 0.2 nM | IC50 ([2]; isolate R416-10, PBMC, p24): 0.2 nM | IC50 ([2]; isolate S159-2 (M41L, K103N, T215Y), PBMC): 0.78 nM | IC50 ([2]; isolate S159-2, PBMC, p24): 0.8 nM | IC50 ([2]; isolate S762-4 (M41L, T215Y), PBMC): 8 nM | IC50 ([2]; isolate S762-4, PBMC, p24): 8 nM | IC50 ([2]; isolate T156-3 (M41L, E44D, D67N, T69D, L210W, T215Y), PBMC): 3.3 nM | IC50 ([2]; isolate T156-3, PBMC, p24): 3.3 nM | IC50 ([2]; isolate X165-8 (D67N, T69N, K70R, K103N, Y181C, T215F, K219E), PBMC): 13 nM | IC50 ([2]; isolate X165-8, PBMC, p24): 13 nM | IC50 ([2]; isolate X165-9 (K20R, D67N, K103N, T215Y), PBMC): 2 nM | IC50 ([2]; isolate X165-9, PBMC, p24): 2 nM | IC50 ([2]; isolate X267-1 (L74V), PBMC, p24): 0.2 nM | IC50 ([2]; isolate X267-1 (M41L, L74V, L210W, T215Y), PBMC): 0.15 nM | IC50 ([2]; isolate X267-2 (M41L, T215Y), PBMC): 0.18 nM | IC50 ([2]; isolate X267-2, PBMC, p24): 0.2 nM | IC50 ([2]; isolate X267-5 (M41L, F116S, T215Y), PBMC): 30 nM | IC50 ([2]; isolate X267-5, PBMC, p24): 30 nM | IC50 ([2]; isolate Y270-7 (M41W, Y188L, T215N), PBMC): 9 nM | IC50 ([2]; isolate Y270-7, PBMC, p24): 9 nM | IC50 ([2]; primary isolate C467-4 (Y188L), Table 14): 42 nM | IC50 ([2]; primary isolate S159-2 (K103N), Table 14): < 0.1 nM | IC50 ([2]; primary isolate X165-8 (K103N, Y181C), Table 14): 13 nM | IC50 ([2]; primary isolate X165-9 (K103N), Table 14): 2 nM | IC50 ([2]; primary isolate Y270-7 (Y188L), Table 14): 9 nM | IC50 ([2]; read-out: IC50 (nM), Mean ± SE, All (n = 25) NRTI-resistant HIV-1 isolates, p24): 13.4 ± 3.2 nM | IC50 ([2]; read-out: IC50 (nM), Mean ± SE, Group A (n = 19) NRTI-resistant clinical isolates): 8.9 ± 2.9 nM | IC50 ([2]; read-out: IC50 (nM), median, All (n = 25)): 6 nM | IC50 ([2]; read-out: IC50 (nM), median, Group A (n = 19)): 3.2 nM | IC50 ([2]; read-out: IC50 (nM), range, All (n = 25)): 0.2 to 57.9 nM | IC50 ([2]; read-out: IC50 (nM), range, Group A (n = 19)): 0.2 to 42 nM | IC50 ([2]; read-out: IC50, μM, Mean ± SE, mean over 20 zidovudine-resistant primary clinical isolates): 8.7 ± 2.7 nM | IC50 ([2]; read-out: IC50, μM, Mean ± SE, mean over the NNRTI-resistant primary isolates of Table 14): 11.2 ± 6.5 nM | IC50 ([2]; read-out: IC50 range, range over 20 zidovudine-resistant primary clinical isolates): 1 to 42 nM | IC50 ([2]; read-out: average IC50 value, mean over 20 zidovudine-resistant primary clinical isolates): 8.7 ± 2.8 nM | IC50 ([2]; read-out: average IC50 value, mean over primary clinical isolates with NNRTI binding pocket mutations): 11.2 ± 6.5 nM | IC50 ([2]; read-out: mean IC50 value, NRTI-resistant isolates with 5 thymidine analog mutations (Group 1 in Table 19)): 10.7 ± 5.1 nM | IC50 ([2]; read-out: mean IC50 value, isolates with M184V plus multiple thymidine analog mutations (Group 2 in Table 19)): 17.2 ± 13 nM | IC50 ([3]; read-out: IC50, μM(Plaque Assay), Mean ± SE, mean over 9 zidovudine-resistant isolates): 0.0794 ± 0.0187 µM | IC50 ([3]; read-out: IC50, μM(Plaque Assay), isolate G190-6 (M41L, D67N, K70R, T215Y, K219Q)): 0.1 µM | IC50 ([3]; read-out: IC50, μM(Plaque Assay), isolate G691-2 (mutations N.D.)): 0.06 µM | IC50 ([3]; read-out: IC50, μM(Plaque Assay), isolate G704-2 (M41L, D67N, K70R, L210W, T215Y)): 0.08 µM | IC50 ([3]; read-out: IC50, μM(Plaque Assay), isolate G780-1 (M41L, D67N, K70R, T215F, K219Q)): 0.015 µM | IC50 ([3]; read-out: IC50, μM(Plaque Assay), isolate G890-1 (K20R, M41L, D67N, T69N, K70R, L210W, T215Y)): 0.04 µM | IC50 ([3]; read-out: IC50, μM(Plaque Assay), isolate H112-2 (no RT mutation, ZDV-sensitive control)): 0.015 µM | IC50 ([3]; read-out: IC50, μM(Plaque Assay), isolate J179-1 (M41L, D67N, L210W, T215Y)): 0.18 µM | IC50 ([3]; read-out: IC50, μM(Plaque Assay), isolate M709-1 (L1210W, T215Y)): 0.08 µM | IC50 ([3]; read-out: IC50, μM(Plaque Assay), isolate Q252-2 (M41L, L210W, T215Y)): 0.11 µM | IC50 ([3]; read-out: IC50, μM(Plaque Assay), isolate U317-8 (M41L, L210W, T215Y)): 0.03 µM | IC50 ([3]; read-out: mean IC50 value (plaque assay), mean over 9 zidovudine-resistant isolates): 0.0794 ± 0.0187 µM
